In PubChem BioAssay (NCI):
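Interpolation was linear, between the two tested concentrations surrounding the appropriate level; five concentrations were tested over 48 hours in 96-well plates. At the TGI there is no net growth.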

What was measured:
Assay in all cases: NCI tumour cell line growth inhibition, 48 h
786-0 renal = system: 786-0 renal
DU-145 prostate = system: DU-145 prostate
HCT-116 colon = system: HCT-116 colon
HCT-15 colon = system: HCT-15 colon
MDA-N = system: MDA-N
MOLT-4 leukemia = system: MOLT-4 leukemia
NCI-H460 lung = system: NCI-H460 lung
OVCAR-3 ovarian = system: OVCAR-3 ovarian
PC-3 prostate = system: PC-3 prostate
RXF 393 renal = system: RXF 393 renal
SF-295 CNS = system: SF-295 CNS
SF-539 CNS = system: SF-539 CNS
SK-MEL-28 melanoma = system: SK-MEL-28 melanoma
SK-MEL-5 melanoma = system: SK-MEL-5 melanoma
SK-OV-3 ovarian = system: SK-OV-3 ovarian
SR leukemia = system: SR leukemia
K-562 leukemia = system: K-562 leukemia
RPMI-8226 leukemia = system: RPMI-8226 leukemia
U251 CNS = system: U251 CNS
NCI-H522 lung = system: NCI-H522 lung

O=c1[nH]c(=O)n(C2CC(O)C(CO)O2)cc1NN=NCCCc1ccccc1 (centres undefined)
TGI (786-0 renal): > 100 µM | TGI (DU-145 prostate): > 100 µM | TGI (HCT-116 colon): > 100 µM | TGI (HCT-15 colon): > 100 µM | TGI (MDA-N): > 100 µM | TGI (MOLT-4 leukemia): > 100 µM | TGI (NCI-H460 lung): > 100 µM | TGI (OVCAR-3 ovarian): > 100 µM | TGI (PC-3 prostate): > 100 µM | TGI (RXF 393 renal): > 100 µM | TGI (SF-295 CNS): > 100 µM | TGI (SF-539 CNS): > 100 µM | TGI (SK-MEL-28 melanoma): > 100 µM | TGI (SK-MEL-5 melanoma): > 100 µM | TGI (SK-OV-3 ovarian): > 100 µM | TGI (SR leukemia): > 100 µM

COc1ccc(/C=C2\CCS(=O)(=O)c3ccccc3C2=O)cc1OC
TGI (786-0 renal): > 100 µM | TGI (DU-145 prostate): > 100 µM | TGI (HCT-116 colon): > 100 µM | TGI (HCT-15 colon): 50.4 µM | TGI (K-562 leukemia): > 100 µM | TGI (MDA-N): > 100 µM | TGI (MOLT-4 leukemia): > 100 µM | TGI (NCI-H460 lung): 47 µM | TGI (OVCAR-3 ovarian): > 100 µM | TGI (PC-3 prostate): > 100 µM | TGI (RPMI-8226 leukemia): > 100 µM | TGI (RXF 393 renal): > 100 µM | TGI (SF-295 CNS): > 100 µM | TGI (SF-539 CNS): > 100 µM | TGI (SK-MEL-28 melanoma): > 100 µM | TGI (SK-OV-3 ovarian): > 100 µM | TGI (SR leukemia): 89.1 µM | TGI (U251 CNS): > 100 µM

O=C(CCCCCC(=O)N1CC(CCl)c2ccc([N+](=O)[O-])cc21)N1CC(CCl)c2ccc([N+](=O)[O-])cc21 (centres undefined)
TGI (786-0 renal): > 100 µM | TGI (DU-145 prostate): > 100 µM | TGI (HCT-116 colon): > 100 µM | TGI (HCT-15 colon): > 100 µM | TGI (K-562 leukemia): > 100 µM | TGI (MDA-N): > 100 µM | TGI (MOLT-4 leukemia): > 100 µM | TGI (NCI-H460 lung): > 100 µM | TGI (NCI-H522 lung): > 100 µM | TGI (OVCAR-3 ovarian): > 100 µM | TGI (PC-3 prostate): > 100 µM | TGI (RXF 393 renal): > 100 µM | TGI (SF-295 CNS): > 100 µM | TGI (SF-539 CNS): > 100 µM | TGI (SK-MEL-5 melanoma): > 100 µM | TGI (SK-OV-3 ovarian): > 100 µM | TGI (SR leukemia): 88.8 µM | TGI (U251 CNS): > 100 µM

COC12CCCN1c1ccn(Cc3ccccc3)c(=O)c1C2=O (centres undefined)
TGI (786-0 renal): > 100 µM | TGI (DU-145 prostate): > 100 µM | TGI (HCT-116 colon): > 100 µM | TGI (HCT-15 colon): > 100 µM | TGI (K-562 leukemia): > 100 µM | TGI (MDA-N): > 100 µM | TGI (MOLT-4 leukemia): > 100 µM | TGI (NCI-H460 lung): > 100 µM | TGI (NCI-H522 lung): > 100 µM | TGI (OVCAR-3 ovarian): > 100 µM | TGI (PC-3 prostate): > 100 µM | TGI (RXF 393 renal): > 100 µM | TGI (SF-295 CNS): > 100 µM | TGI (SF-539 CNS): > 100 µM | TGI (SK-MEL-28 melanoma): > 100 µM | TGI (SK-MEL-5 melanoma): > 100 µM | TGI (SK-OV-3 ovarian): > 100 µM | TGI (SR leukemia): > 100 µM | TGI (U251 CNS): > 100 µM

CC(=O)c1ccccc1NCC(=O)Nn1cnc2ccc(S(=O)(=O)Nc3ccccc3C(C)=O)cc2c1=O
TGI (786-0 renal): > 100 µM | TGI (DU-145 prostate): > 100 µM | TGI (HCT-116 colon): > 100 µM | TGI (HCT-15 colon): > 100 µM | TGI (K-562 leukemia): > 100 µM | TGI (MDA-N): > 100 µM | TGI (MOLT-4 leukemia): > 100 µM | TGI (NCI-H460 lung): > 100 µM | TGI (NCI-H522 lung): > 100 µM | TGI (OVCAR-3 ovarian): > 100 µM | TGI (PC-3 prostate): > 100 µM | TGI (RPMI-8226 leukemia): > 100 µM | TGI (SF-295 CNS): > 100 µM | TGI (SF-539 CNS): > 100 µM | TGI (SK-MEL-28 melanoma): > 100 µM | TGI (SK-OV-3 ovarian): > 100 µM | TGI (SR leukemia): > 100 µM | TGI (U251 CNS): > 100 µM

CCCCCCCC(CC(=O)NC(CO)C(=O)NC(CO)CC(C)C)OC(=O)CC(CCCCCCC)OC(=O)CC(CCCCCCC)OC1OC(C)C(O)C(OC2OC(C)C(O)C(O)C2OC(C)=O)C1O (centres undefined)
TGI (786-0 renal): 17.6 µM | TGI (DU-145 prostate): 22.4 µM | TGI (HCT-116 colon): 15.1 µM | TGI (K-562 leukemia): 16.8 µM | TGI (MDA-N): 16 µM | TGI (MOLT-4 leukemia): 10.5 µM | TGI (NCI-H460 lung): 15.4 µM | TGI (NCI-H522 lung): 26.8 µM | TGI (OVCAR-3 ovarian): 25.6 µM | TGI (PC-3 prostate): 15.8 µM | TGI (RXF 393 renal): 9.29 µM | TGI (SF-295 CNS): 21.7 µM | TGI (SF-539 CNS): 23.5 µM | TGI (SK-MEL-28 melanoma): 21.6 µM | TGI (SK-MEL-5 melanoma): 21.7 µM | TGI (SK-OV-3 ovarian): 30.3 µM | TGI (SR leukemia): 4.93 µM | TGI (U251 CNS): 20.1 µM

COc1cc2oc(=O)cc(C)c2cc1O
TGI (786-0 renal): > 100 µM | TGI (DU-145 prostate): > 100 µM | TGI (HCT-116 colon): > 100 µM | TGI (HCT-15 colon): > 100 µM | TGI (K-562 leukemia): > 100 µM | TGI (MDA-N): > 100 µM | TGI (MOLT-4 leukemia): > 100 µM | TGI (NCI-H460 lung): > 100 µM | TGI (NCI-H522 lung): > 100 µM | TGI (OVCAR-3 ovarian): > 100 µM | TGI (PC-3 prostate): > 100 µM | TGI (RPMI-8226 leukemia): > 100 µM | TGI (RXF 393 renal): > 100 µM | TGI (SF-295 CNS): > 100 µM | TGI (SF-539 CNS): > 100 µM | TGI (SK-MEL-28 melanoma): > 100 µM | TGI (SK-MEL-5 melanoma): > 100 µM | TGI (SR leukemia): > 100 µM | TGI (U251 CNS): > 100 µM

O=C1Nc2ccccc2Cn2c1cc1oc(-c3ccccc3)cc12
TGI (786-0 renal): 45.4 µM | TGI (DU-145 prostate): > 100 µM | TGI (HCT-15 colon): > 100 µM | TGI (K-562 leukemia): > 100 µM | TGI (MDA-N): > 100 µM | TGI (MOLT-4 leukemia): > 100 µM | TGI (NCI-H460 lung): > 100 µM | TGI (NCI-H522 lung): > 100 µM | TGI (OVCAR-3 ovarian): > 100 µM | TGI (PC-3 prostate): > 100 µM | TGI (RXF 393 renal): 53 µM | TGI (SF-295 CNS): 63.3 µM | TGI (SF-539 CNS): 74.3 µM | TGI (SK-MEL-28 melanoma): > 100 µM | TGI (SK-MEL-5 melanoma): > 100 µM | TGI (SK-OV-3 ovarian): 69.9 µM | TGI (SR leukemia): > 100 µM | TGI (U251 CNS): 36.3 µM

Cc1ccc(C(=O)N(Cc2ccccc2)Cc2ccccc2)cc1N=NN(C)C
TGI (786-0 renal): > 100 µM | TGI (DU-145 prostate): > 100 µM | TGI (HCT-116 colon): 30 µM | TGI (HCT-15 colon): > 90.1 µM | TGI (K-562 leukemia): > 100 µM | TGI (MDA-N): > 100 µM | TGI (MOLT-4 leukemia): > 100 µM | TGI (NCI-H460 lung): > 100 µM | TGI (NCI-H522 lung): 38.7 µM | TGI (OVCAR-3 ovarian): 43.1 µM | TGI (PC-3 prostate): > 100 µM | TGI (RPMI-8226 leukemia): > 100 µM | TGI (SF-295 CNS): > 81.5 µM | TGI (SF-539 CNS): 44.9 µM | TGI (SK-MEL-28 melanoma): > 69.7 µM | TGI (SK-MEL-5 melanoma): 27.3 µM | TGI (SK-OV-3 ovarian): 99.2 µM | TGI (SR leukemia): > 100 µM | TGI (U251 CNS): > 100 µM

NNc1nncc2[nH]cnc12
TGI (786-0 renal): > 100 µM | TGI (DU-145 prostate): > 100 µM | TGI (HCT-116 colon): > 100 µM | TGI (HCT-15 colon): > 100 µM | TGI (K-562 leukemia): > 100 µM | TGI (MDA-N): > 100 µM | TGI (MOLT-4 leukemia): > 100 µM | TGI (NCI-H460 lung): > 100 µM | TGI (OVCAR-3 ovarian): > 100 µM | TGI (PC-3 prostate): > 100 µM | TGI (RPMI-8226 leukemia): > 100 µM | TGI (RXF 393 renal): > 100 µM | TGI (SF-295 CNS): > 100 µM | TGI (SF-539 CNS): > 100 µM | TGI (SK-MEL-28 melanoma): > 100 µM | TGI (SK-MEL-5 melanoma): > 100 µM | TGI (SR leukemia): > 100 µM | TGI (U251 CNS): > 100 µM

C=CC(OC(C)=O)c1ccc(OC(=O)C(C)C)c(OC)c1 (centres undefined)
TGI (786-0 renal): 4.25 µM | TGI (DU-145 prostate): 24.5 µM | TGI (HCT-116 colon): 22.5 µM | TGI (HCT-15 colon): 20 µM | TGI (K-562 leukemia): 11.6 µM | TGI (MDA-N): 16.8 µM | TGI (MOLT-4 leukemia): 36.2 µM | TGI (NCI-H460 lung): > 57.6 µM | TGI (NCI-H522 lung): 3.01 µM | TGI (OVCAR-3 ovarian): 12.4 µM | TGI (PC-3 prostate): 19.3 µM | TGI (RPMI-8226 leukemia): 4.28 µM | TGI (RXF 393 renal): 14.4 µM | TGI (SF-295 CNS): 24.7 µM | TGI (SF-539 CNS): 22.6 µM | TGI (SK-MEL-28 melanoma): 28.8 µM | TGI (SK-MEL-5 melanoma): 30.1 µM | TGI (SK-OV-3 ovarian): 30.3 µM | TGI (U251 CNS): 7.07 µM

COc1cc(C2SC(C)C(=O)N2c2ccc(-c3csc(NS(=O)(=O)c4ccc(Cl)c(OC)c4)n3)cc2)ccc1O (centres undefined)
TGI (786-0 renal): > 100 µM | TGI (DU-145 prostate): > 100 µM | TGI (HCT-116 colon): > 100 µM | TGI (HCT-15 colon): > 100 µM | TGI (K-562 leukemia): > 100 µM | TGI (MDA-N): > 100 µM | TGI (MOLT-4 leukemia): > 100 µM | TGI (NCI-H460 lung): > 100 µM | TGI (NCI-H522 lung): 47.1 µM | TGI (OVCAR-3 ovarian): > 100 µM | TGI (PC-3 prostate): > 100 µM | TGI (RXF 393 renal): > 100 µM | TGI (SF-295 CNS): > 100 µM | TGI (SF-539 CNS): > 100 µM | TGI (SK-MEL-28 melanoma): > 100 µM | TGI (SK-MEL-5 melanoma): > 100 µM | TGI (SK-OV-3 ovarian): > 100 µM | TGI (SR leukemia): > 100 µM | TGI (U251 CNS): > 100 µM
